From the NIST ThermoML archive (doi:10.1016/j.jct.2011.02.018)

Assay: xn = mol fraction of the nth substance listed
Settings: 101 kPa, Liquid; for mass density: Vibrating tube method; for viscosity: Concentric cylinders viscometry

COC(C)(C)C [2-methoxy-2-methylpropane] + CO
mass density [kg/m3]
Settings | 293.15 K | 298.15 K | 303.15 K | 308.15 K
x1 = 0.01 | 790.62 | 785.93 | 781.19 | 776.42
x1 = 0.0201 | 789.69 | 785 | 780.24 | 775.46
x1 = 0.0301 | 788.74 | 784.01 | 779.26 | 774.46
x1 = 0.0402 | 787.83 | 783.09 | 778.32 | 773.51
x1 = 0.0502 | 786.96 | 782.24 | 777.44 | 772.61
x1 = 0.0601 | 786.1 | 781.36 | 776.57 | 771.73
x1 = 0.0696 | 785.32 | 780.58 | 775.75 | 770.9
x1 = 0.0799 | 784.47 | 779.71 | 774.88 | 770.02
x1 = 0.0888 | 783.72 | 778.95 | 774.12 | 769.25
x1 = 0.1008 | 782.79 | 778 | 773.16 | 768.27
x1 = 0.1498 | 779.11 | 774.25 | 769.36 | 764.43
x1 = 0.1945 | 776.01 | 771.13 | 766.21 | 761.24
x1 = 0.26 | 771.99 | 767.08 | 762.1 | 757.08
x1 = 0.3006 | 769.58 | 764.65 | 759.64 | 754.59
x1 = 0.3482 | 766.92 | 761.97 | 756.93 | 751.87
x1 = 0.3841 | 765.07 | 760.07 | 755.01 | 749.92
x1 = 0.4527 | 761.67 | 756.67 | 751.59 | 746.45
x1 = 0.5004 | 759.46 | 754.42 | 749.29 | 744.12
x1 = 0.5458 | 757.52 | 752.46 | 747.32 | 742.12
x1 = 0.6009 | 755.29 | 750.18 | 745.03 | 739.81
x1 = 0.6459 | 753.48 | 748.37 | 743.18 | 737.93
x1 = 0.7014 | 751.36 | 746.23 | 741.01 | 735.74
x1 = 0.7449 | 749.75 | 744.6 | 739.36 | 734.07
x1 = 0.7986 | 747.76 | 742.58 | 737.33 | 732.01
x1 = 0.8504 | 745.92 | 740.74 | 735.47 | 730.13
x1 = 0.8978 | 744.27 | 739.05 | 733.78 | 728.43
x1 = 0.9091 | 743.88 | 738.66 | 733.39 | 728.04
x1 = 0.9184 | 743.53 | 738.33 | 733.04 | 727.69
x1 = 0.9259 | 743.26 | 738.07 | 732.78 | 727.43
x1 = 0.9379 | 742.81 | 737.6 | 732.32 | 726.97
x1 = 0.9473 | 742.48 | 737.28 | 732 | 726.65
x1 = 0.9598 | 742.06 | 736.83 | 731.56 | 726.21
x1 = 0.9706 | 741.68 | 736.46 | 731.17 | 725.82
x1 = 0.9791 | 741.36 | 736.13 | 730.85 | 725.49
x1 = 0.9881 | 741.04 | 735.82 | 730.53 | 725.18

COC(C)(C)C [2-methoxy-2-methylpropane] + CCCCO
Settings | mass density, 293.15 K [kg/m3] | mass density, 298.15 K [kg/m3] | mass density, 303.15 K [kg/m3] | mass density, 308.15 K [kg/m3] | viscosity, 293.15 K [mPa·s] | viscosity, 298.15 K [mPa·s] | viscosity, 303.15 K [mPa·s] | viscosity, 308.15 K [mPa·s]
x1 = 0.0104 | 809.06 | 805.25 | 801.38 | 797.5 | 2.875 | 2.518 | 2.22 | 1.958
x1 = 0.0243 | 808.13 | 804.31 | 800.43 | 796.52 | 2.741 | 2.41 | 2.126 | 1.882
x1 = 0.0294 | 807.77 | 803.94 | 800.06 | 796.14 | 2.696 | 2.374 | 2.094 | 1.855
x1 = 0.0396 | 807.09 | 803.24 | 799.35 | 795.41 | 2.618 | 2.298 | 2.032 | 1.8
x1 = 0.0498 | 806.41 | 802.54 | 798.63 | 794.68 | 2.522 | 2.227 | 1.973 | 1.75
x1 = 0.0601 | 805.74 | 801.84 | 797.91 | 793.95 | 2.439 | 2.156 | 1.908 | 1.697
x1 = 0.0699 | 805.07 | 801.16 | 797.21 | 793.24 | 2.366 | 2.093 | 1.857 | 1.654
x1 = 0.0804 | 804.38 | 800.44 | 796.49 | 792.5 | 2.296 | 2.028 | 1.809 | 1.612
x1 = 0.0898 | 803.72 | 799.79 | 795.81 | 791.81 | 2.224 | 1.969 | 1.752 | 1.564
x1 = 0.1006 | 802.95 | 798.99 | 795 | 790.98 | 2.144 | 1.903 | 1.695 | 1.514
x1 = 0.1507 | 799.54 | 795.53 | 791.47 | 787.38 | 1.85 | 1.656 | 1.489 | 1.334
x1 = 0.1993 | 796.26 | 792.17 | 788.04 | 783.88 | 1.6 | 1.437 | 1.294 | 1.169
x1 = 0.2516 | 792.7 | 788.55 | 784.35 | 780.11 | 1.382 | 1.25 | 1.132 | 1.029
x1 = 0.3022 | 789.27 | 785.01 | 780.75 | 776.43 | 1.216 | 1.103 | 0.9992 | 0.9132
x1 = 0.3515 | 785.87 | 781.6 | 777.25 | 772.86 | 1.077 | 0.9815 | 0.893 | 0.8189
x1 = 0.4031 | 782.33 | 777.98 | 773.56 | 769.1 | 0.9523 | 0.8743 | 0.797 | 0.7323
x1 = 0.4497 | 779.15 | 774.73 | 770.24 | 765.7 | 0.8598 | 0.7902 | 0.7267 | 0.6743
x1 = 0.4999 | 775.69 | 771.23 | 766.66 | 762.05 | 0.7724 | 0.7125 | 0.6568 | 0.6081
x1 = 0.5485 | 772.39 | 767.84 | 763.2 | 758.52 | 0.6999 | 0.6476 | 0.5981 | 0.5512
x1 = 0.5953 | 769.2 | 764.57 | 759.86 | 755.11 | 0.6397 | 0.5937 | 0.5512 | 0.5073
x1 = 0.6445 | 765.82 | 761.14 | 756.35 | 751.52 | 0.585 | 0.5452 | 0.506 | 0.4692
x1 = 0.6999 | 762 | 757.24 | 752.37 | 747.46 | 0.53 | 0.4937 | 0.4595 | 0.4236
x1 = 0.7466 | 758.77 | 753.92 | 748.98 | 744 | 0.4912 | 0.4586 | 0.4275 | 0.395
x1 = 0.8067 | 754.66 | 749.65 | 744.63 | 739.55 | 0.4474 | 0.4167 | 0.3876 | 0.3578
x1 = 0.8404 | 752.26 | 747.22 | 742.14 | 737.01 | 0.4251 | 0.3961 | 0.3679 | 0.3465
x1 = 0.8695 | 750.22 | 745.15 | 740.03 | 734.85 | 0.408 | 0.3799 | 0.3544 | 0.3327
x1 = 0.8983 | 748.09 | 743 | 737.86 | 732.64 | 0.3889 | 0.3651 | 0.3371 | 0.3165
x1 = 0.9092 | 747.32 | 742.21 | 737.05 | 731.8 | 0.3832 | 0.3591 | 0.3333 | 0.3137
x1 = 0.9188 | 746.62 | 741.51 | 736.33 | 731.09 | 0.3778 | 0.3547 | 0.3301 | 0.3112
x1 = 0.9299 | 745.83 | 740.69 | 735.5 | 730.24 | 0.3717 | 0.3493 | 0.3249 | 0.305
x1 = 0.9398 | 745.11 | 739.96 | 734.74 | 729.47 | 0.3683 | 0.3491 | 0.329 | 0.3048
x1 = 0.9492 | 744.42 | 739.25 | 734.03 | 728.76 | 0.3654 | 0.3479 | 0.3225 | 0.3006
x1 = 0.9607 | 743.59 | 738.39 | 733.15 | 727.86 | 0.358 | 0.3391 | 0.3169 | 0.2958
x1 = 0.9697 | 742.97 | 737.75 | 732.49 | 727.18 | 0.356 | 0.331 | 0.3107 | 0.2998
x1 = 0.9796 | 742.24 | 737.01 | 731.74 | 726.41 | 0.3489 | 0.3267 | 0.3076 | 0.2964
x1 = 0.9902 | 741.47 | 736.22 | 730.94 | 725.59 | 0.3456 | 0.3214 | 0.2976 | 0.2892
